The source made the active and inactive calls.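 How the source made its calls: active means maximal inhibition of USP17 at or above 30% in the confirmation dose-response, a value not among the printed readouts; inactive means the rest.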 A value given as a limit tells only on which side of the number the result lay.

Chain of Ubiquitin carboxyl-terminal hydrolase 17-like protein 5 (Homo sapiens) (A8MUK1 whole entry, looked up): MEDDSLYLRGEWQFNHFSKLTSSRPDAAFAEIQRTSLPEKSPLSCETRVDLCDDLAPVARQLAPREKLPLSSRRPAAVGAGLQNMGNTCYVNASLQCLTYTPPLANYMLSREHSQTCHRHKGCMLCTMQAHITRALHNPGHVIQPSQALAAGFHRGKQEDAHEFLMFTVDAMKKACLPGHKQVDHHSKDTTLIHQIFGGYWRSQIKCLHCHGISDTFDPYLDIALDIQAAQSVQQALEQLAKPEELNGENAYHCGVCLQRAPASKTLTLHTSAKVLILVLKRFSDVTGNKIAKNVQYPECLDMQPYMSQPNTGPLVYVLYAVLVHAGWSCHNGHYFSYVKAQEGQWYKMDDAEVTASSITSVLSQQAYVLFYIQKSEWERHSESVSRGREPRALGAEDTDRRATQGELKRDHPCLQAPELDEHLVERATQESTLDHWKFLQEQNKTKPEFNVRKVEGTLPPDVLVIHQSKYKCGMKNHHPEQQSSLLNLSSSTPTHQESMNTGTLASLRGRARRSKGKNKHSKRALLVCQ

The assay has as its target Ubiquitin carboxyl-terminal hydrolase 17-like protein 5 (Homo sapiens) (UniProt A8MUK1). Briefly: ubiquitin-specific protease 17 inhibitors, concentration series, biochemical, verification of primary actives (AID 1645864). As to conditions: purified USP17, ubiquitin-rhodamine cleavage fluorescence, 3 h.
As for `COc1ncccc1CN1CCn2c(Cn3cccn3)cnc2C1C` (stereo not drawn), the IC50 (in general, the point on the concentration scale where inhibition reaches its midpoint) is > 50 µM (inactive).

Regarding `Cc1ccc(C(=O)NCC(=O)Nc2nc3ccccc3[nH]2)c(C)c1`, the half-inhibitory concentration (IC50) was 30.7 µM.

For the compound `CCCc1cc(=O)n2[nH]c(COc3ccccc3)c(-c3ccccc3)c2n1`, the IC50 was 41.7 µM.

In the case of `O=C(Nc1ccc(Cl)cc1)Nc1cccn2ncnc12`, the IC50 was 21.7 µM.

As for `O=C(CSc1nnc(-c2ccc3c(c2)OCO3)n1-c1ccccc1)OCC(=O)c1ccccc1`, the IC50 is > 50 µM (inactive).

On to `O=C(CCc1ccc(S(=O)(=O)N2CCOCC2)cc1)Nc1ccc2c(c1)OCCO2`, for which the IC50 is > 50 µM (inactive).

Take `N#Cc1ccc(NC(=O)Nc2cccn(Cc3ccccc3F)c2=O)cc1`: the IC50 was 6.33 µM.

For `O=C(Nc1cc(F)c2nc(N3CCOCC3)ccc2c1)c1ccc(Br)o1`, the concentration for half-maximal inhibition (IC50) is 42.2 µM.

As to `Cc1c(-c2ccc(C#N)cc2)oc2ccc(Br)cc2c1=O`, the IC50 is 2.88 µM.

Turning to `Cc1ccc(OCCn2c(=N)n(C(C)C)c3ccccc32)cc1`, the IC50 was > 50 µM (inactive).

With `COc1ccccc1NC(=O)CNC(=O)c1nn(-c2ccc(OC)c(OC)c2)c(=O)c2ccccc12`, the IC50 is 29.4 µM.

With `CC[C@H](C)[C@H](NC(=O)[C@H]([C@@H](C)CC)N(C)C(C)=O)C(=O)N[C@H](C(=O)N[C@@H](CC(C)C)C(=O)C1(C)CO1)[C@@H](C)O` (stereo partly drawn), the IC50 is > 50 µM (inactive).

Regarding `Cc1ccc(-c2nc(Cn3cnc4ccccc4c3=O)cs2)cc1`, the IC50 was 7.32 µM.

As for `Cc1ccc(NC(=O)c2cc(=O)n(C)c3c2c(=O)n(C)c(=O)n3C)c(C)c1`, the IC50 is > 50 µM (inactive).

With `O=C(Cc1cccc2ccccc12)Nc1nc2ccc(F)cc2s1`, the IC50 was > 50 µM (inactive).

As to `CSc1ncccc1C(=O)NC1(O)C(=O)c2ccccc2C1=O`, the IC50 was 4.57 µM.

With `CCC(=O)Nc1ccccc1-c1nc2ccccc2n(CC(=O)Nc2cc(OC)ccc2OC)c1=O`, the IC50 is 18.6 µM.

With `O=C(NCc1nc2ccccc2[nH]1)c1cccc(S(=O)(=O)N2CCc3ccccc32)c1`, the IC50 is > 50 µM (inactive).

As to `O=C(O)Cc1ccc(Nc2nc3ccccc3n3nnnc23)cc1`, the IC50 is > 50 µM (inactive).

As for `CCN(CC)c1cc(C)c2cc(NC(=O)c3ccncc3)ccc2n1`, the IC50 was > 50 µM (inactive).

Regarding `COc1ccccc1CNC(=O)Nc1cccc2ccccc12`, the half-inhibitory concentration (IC50) is 39.2 µM.

For `CCCn1c(=O)c(-c2ccc(C(=O)NCc3ccc(OC)cc3)cc2)nc2cccnc21`, the concentration for half-maximal inhibition (IC50) was 1.78 µM.

On to `COc1ccc(CNc2nn3c(-c4cncc(OC)c4)cnc3s2)cc1`, for which the IC50 is 4.02 µM.

As for `COc1cccc(NC(=O)C2Cc3ccccc3N2C(=O)c2ccccc2)c1` (stereo not drawn), the 50% inhibitory concentration (IC50) was 27.7 µM.

Turning to `CCCc1nc2sc3c(NCCN4CCOCC4)ncnc3c2c2c1CCC2`, the IC50 was > 50 µM (inactive).

Take `Cc1ccc(-n2c(=O)c3ccccc3n(Cc3c(F)cccc3Cl)c2=O)cc1`: the 50% inhibitory concentration (IC50) was 3.57 µM.

Take `Cc1ccc(C(=O)Nc2ccc(S(=O)(=O)N3CCCC3)cc2)cc1Br`: the IC50 was > 50 µM (inactive).

`O=C(Nc1ccccc1)c1ccc2c(c1)CC(c1ccccc1)OC2=O` (stereo not drawn): the half-maximal inhibitory concentration (IC50) is 16 µM.

In the case of `O=C(c1ccnn1-c1ccc2ccc(-c3ccncc3)cn12)N1CCCC1`, the IC50 is > 50 µM (inactive).

As to `Fc1ccc(Nc2nc(Nc3cccc(F)c3)nc3nccnc23)cc1`, the IC50 was > 50 µM (inactive).

Consider `Cc1ccccc1NC(=O)c1ccn(COc2ccc(Cl)cc2)n1`, for which the IC50 was > 50 µM (inactive).

Consider `Fc1cnc(N2CC[C@H]3CO[C@H](CNc4ncccn4)[C@H]3C2)nc1`, for which the IC50 was > 50 µM (inactive).

With `FC(F)(F)c1cccc(Nc2nnc(-c3cccnc3)s2)c1`, the 50% inhibitory concentration (IC50) was 5.64 µM.

Turning to `CC(C)c1ccc(NC(=O)COC(=O)c2ccc3[nH]c4c(c3c2)CCCC4)cc1`, the half-maximal inhibitory concentration (IC50) is 42.7 µM.

In the case of `Cc1ccc(NC(=O)c2nnn(-c3ccccc3)n2)cc1F`, the IC50 was > 50 µM (inactive).

`O=C(NCCCc1nc2ccccc2n1Cc1c(Cl)cccc1Cl)c1ccco1`: the IC50 was 36 µM.

Regarding `CC(=O)c1sc(NC(=O)/C=C/c2ccccc2)nc1-c1ccccc1`, the concentration for half-maximal inhibition (IC50) is 13.7 µM.

`CC(C)N1CC2CN(C(=O)c3ccccc3)CCN2Cc2ccccc21` (stereo not drawn): the IC50 is > 50 µM (inactive).

Consider `CCS(=O)(=O)c1ccccc1C(=O)Nc1ccc2sc(C)nc2c1`, for which the IC50 is > 50 µM (inactive).

For `COc1ccc(C2C(C(=O)Nc3ccccc3OC)=C(C)Nc3nnnn32)cc1Br` (stereo not drawn), the IC50 is 36.3 µM.

`O=C(COC(=O)Cn1cnc2ccccc21)Nc1ccc2c(c1)OCCO2`: the IC50 was > 50 µM (inactive).

As to `CC1CCc2c(sc3nc(CC#N)[nH]c(=O)c23)C1` (stereo not drawn), the IC50 was > 50 µM (inactive).

Turning to `CCN(CC)C(=O)CN1CCCC(c2ncncc2-c2cc(C)no2)C1` (stereo not drawn), the IC50 is > 50 µM (inactive).

Regarding `O=C(CSc1cn(Cc2ccccc2)c2ccccc12)Nc1ccc2c(c1)OCCO2`, the IC50 is > 50 µM (inactive).

Consider `Cc1ccc(NC(=O)c2cnc3c(c2)c(=O)n(C)c(=O)n3C)cc1`, for which the IC50 was 2.51 µM.

`CCC1OC(O)(C(C)C(O)C(C)C2OC(=O)/C(C)=C/C(C)=CC(C)C(O)C(C)C/C(C)=C/C=C/C2OC)CC(OC(=O)/C=C/C(=O)NC2=C(O)CCC2=O)C1C` (stereo not drawn): the IC50 was > 50 µM (inactive).

For the compound `COc1ccc2nc(NC(=O)C(CC(C)C)NS(=O)(=O)c3ccc4c(c3)CCN4C(C)=O)sc2c1` (stereo not drawn), the IC50 is 29.2 µM.

`Cc1ccc2cccc(OCc3nnc(SCC(=O)c4ccc(Cl)cc4)n3C)c2n1`: the IC50 was 2.65 µM.

As for `O=C(COc1ccc(Cl)cc1Cl)Nc1ccc2[nH]c(=O)[nH]c2c1`, the IC50 was 7.41 µM.

As for `O=C(CNc1ccc(F)c(Cl)c1)Nc1ccc2c(c1)OCCO2`, the IC50 was > 50 µM (inactive).

As for `COc1cc(O)c2c(O)c3c(cc2c1)CC(C)OC3=O` (stereo not drawn), the IC50 was 6.24 µM.

With `C=C1CCC2[C@](C)(CCC[C@]2(C)C(=O)OC)[C@H]1CCc1ccoc1C[N+](C)(C)Cc1ccccc1` (stereo partly drawn), the IC50 is > 50 µM (inactive).

Consider `COc1ccc(-c2cc(N3CCC(NC(=O)c4ccccc4)C3)n[nH]2)cc1` (stereo not drawn), for which the IC50 is 20.8 µM.

For the compound `CC(C)Cc1nc2oc3c(N(C)CCO)ncnc3c2c2c1CCC2`, the IC50 was > 50 µM (inactive).

Take `Cc1nn(Cc2ccccc2)c(C)c1C(=O)NC1CCCc2ccccc21` (stereo not drawn): the IC50 was > 50 µM (inactive).

`CCOc1ccc(-c2noc(-c3nn(-c4cccc(OC)c4)ccc3=O)n2)cc1`: the IC50 was 10 µM.

On to `CCC(=O)N1c2ccccc2NC2=C(C(=O)CC(c3ccccc3OCc3ccccc3)C2)C1c1ccccc1` (stereo not drawn), for which the half-inhibitory concentration (IC50) was 4.4 µM.

`CC(=O)c1ccccc1NC(=O)COc1ccc(-c2ccc(C#N)cc2)cc1`: the IC50 was 2.62 µM.

As for `Cc1ccc(CNC(=O)c2cccc(N3C(=O)N4CCc5c([nH]c6ccccc56)[C@@]4(C)C3=O)c2)cc1`, the IC50 was 23.1 µM.

On to `COc1cc2c(cc1OC)-c1cc(NCc3cc(OC)c(OC)c(OC)c3)nc(=O)n1CC2`, for which the IC50 is > 50 µM (inactive).

Regarding `COc1cc(C(=O)NC(Cc2ccccc2)c2nc3ccccc3[nH]2)cc(OC)c1OC` (stereo not drawn), the IC50 is 2.62 µM.

Take `C/C=C\C1=CC(=O)[C@]23C[C@H]2[C@]2(C)CO[C@@]1(O)[C@@]3(O)O2`: the IC50 is > 50 µM (inactive).

In the case of `CCOC(=O)Nc1ccc(N2CCn3c(nc4ccccc43)C2)cc1OC`, the IC50 was > 50 µM (inactive).

The values above are taken from PubChem BioAssay AID1645864 (Buhrlage Lab, Dana-Farber Cancer Institute and Novartis …, 2021).
